The record followed here is patent US20030092633A1, “Preventing desensitization of receptors” (priority 2001, published 2003).

Molecules are shown by their SMILES.

The test system of one data set is GRK. The experiment in a line: GRK phosphorylation of synthetic peptide substrate with 32P-ATP (isolated system). The class given is biochemical. Conditions: GSNO 500 μM, 50 μM, 5 μm; counts per minute; FIG. 3. As for the experimental part: An isolated system was provided consisting of medium, GRK, standard synthetic peptide substrate and radiolabeled ^32P-adenosine triphosphate, i.e., ^32P-ATP, as a source of phosphate. Runs were carried out on the system without additives, and with 500 μM glutathione (GSH) present and with GSNO (500 μM) present or with GSNO (50 μM) present or with GSNO (5 μm) present. The amount of bound ^32P was measured in counts per minute (CPM).

Data set [1] is described as follows: Example V: heroine addict, dose tapering, withdrawal symptoms. The settings on record: ethyl nitrite intravenously 2 nmol per kg per minute. The class given is in vivo, patient. An excerpt: A heroine addict enters a clinic where their dose is tapered gradually. In order to avoid symptoms of withdrawal, ethyl nitrite is started intravenously at 2 nmol per kg per minute and symptoms of withdrawal, including sweats and shaking, are ameliorated.

A short description of data set [2]: Example VII: patient with rheumatoid arthritis and pulmonary infiltrates. The class given is in vivo. Conditions: intravenous ethyl nitrite 2 nmol per kg per minute. An excerpt:
A person with rheumatoid arthritis and pulmonary infiltrates complains of shortness of breath and knee pain.

The subject of another data set is β-adrenergic receptor. The experiment in a line: Saturation binding with radiolabeled 125I-cyanopindolol in purified cardiac membrane of treated mice. The format is in vivo. As to the method: Mice were treated with 10 ng/kg/day of GSNO or PBS infused continuously for 1 week through an azlet miniosmotic pump placed subcutaneously. Another set of mice was treated for 7 days with isoproterenol (30 mg/kg/day), and the fourth and final group received for 7 days, isoproterenol (30 mg/kg/day) plus GSNO (10 ng/kg/day). The mice were sacrificed and heart tissue was removed. Saturation binding with radiolabeled 1^125-cyanopindolol was carried out in purified cardiac membrane according to the procedure of Iaccarino et al, Circulation 98, 17A3-17A9 (1998).

A short description of data set [3]: Ratio of heart weight to body weight after 1 week continuous infusion. The format is in vivo. Conditions: mice, infused continuously 1 week; GSNO 10/ng/kg/day; isoproterenol 30 mg/kg/day; combination 10 mg/kg/day GSNO plus 30 mg/kg/day isoproterenol; FIG. 1. As for the experimental part: Mice were treated with 10/ng/kg/day of GSNO, or with PBS (control) or with isoproterenol (at a dosage of 30 mg/kg/day) or with 10 mg/kg/day of GSNO plus 30 mg/kg/day isoproterenol, infused continuously for 1 week. The animals were sacrificed and the hearts were weighed and a ratio of heart weight to body weight was determined for each case. The results are set forth in FIG. 1 where hw:bw, i.e., the legend on the vertical axis, is the ratio of heart weight to total body weight and “ISO” means isoproterenol. […] The increase in size of heart (hypertrophy) is an advantage especially in the case of a patient on a left ventricular heart assist device awaiting heart transplant and in the case of a patient who has had heart surgery and cannot be disconnected from a heart pump without loss of heart function. The asterisks in FIG. 1 mean […] compared to control.

Data set [4] is described as follows: Example I: patient with class 4 congestive heart failure. The class given is in vivo. As to the method: A person with class 4 congestive heart failure enters the hospital with shortness of breath and bradyacardia. […] The patient is subsequently switched to IV dobutamine at 10 μg per kg per minute titrated to cardiac output. Over the following three days the drug is increased to 30 μg per kg per minute to maintain cardiac output. […] The patient undergoes bypass surgery and does well even though they have been viewed as at high risk.

Data set [5] is described as follows: Example II: patient on left ventricular assist device awaiting cardiac transplantation. Conditions: IV GSNO 4 nmol per kg per minute. The format is in vivo. The text has this: A person awaiting cardiac transplantation is placed a left ventricular assist device, but continues to suffer from severe shortness of breath.
Data set [6] can be described thus: Example III: patient who cannot be removed from bypass after coronary artery bypass grafting. Conditions: intravenous GSNO 2 nmol per kg per minute, after two hours. The class given is in vivo. An excerpt:
A person with an ejection fraction of 17% undergoes coronary artery bypass grafting. The surgeons are unable to remove the patient from bypass.

Data set [7] is described as follows: Example IV: metastatic prostate cancer patient with bone pain unresponsive to opiates. Conditions: intravenous GSNO 10 nmol per kg per minute in conjunction with morphine. The format is in vivo. The text has this:
A person with metastatic prostate cancer is suffering from severe bone pain unresponsive to opiates.

Data set [8] can be described thus: Example VI: cystic fibrosis patient with shortness of breath. The format is in vivo. The settings on record: inhaled GSNO, 3 cc of a 10 mM solution, pH 7, 4×/day. As to the method: A person with cystic fibrosis enters the hospital complaining of shortness of breath. […] They are started on inhaled GSNO (3 cc of a 10 mM solution, pH 7, 4×/day).

Take `N[C@@H](CSN=O)C(=O)O` [S-nitroso-cysteine]: in the data set with GRK, the “amount of bound 32P (incorporation of 32P into substrate)” value was “same result of GRK inhibition and interference with substrate phosphorylation”.

As to `CCON=O` [ethyl nitrite], the “symptoms of withdrawal, including sweats and shaking” value in [1] was “ameliorated”. In addition, in data set [2], the knee pain result is reported as “decrease in knee pain” and the respiratory status entry was “improvement in respiratory status”.

Take `CC(C)NCC(O)c1ccc(O)c(O)c1` (stereo not drawn) [isoproterenol, reference compound]: in the data set with β-adrenergic receptor (isoproterenol 30 mg/kg/day for 7 days, no GSNO), the “amount of β-adrenergic receptor” value is 20 fmol per milligram protein. In addition, the “ratio of heart weight to body weight (hw:bw), size of heart muscle” value in data set [3] is on record as “increased the size of the heart muscle”. Further, the “symptoms (shortness of breath and bradyacardia)” value in data set [4] (10 μg per minute intravenous isoproterenol) is “resolution of symptoms”.

Turning to `N[C@@H](CCC(=O)N[C@@H](CSN=O)C(=O)NCC(=O)O)C(=O)O` [GSNO, S-nitrosoglutathione], in the data set with β-adrenergic receptor (GSNO 10 ng/kg/day infused 1 week, no isoproterenol), the “amount of β-adrenergic receptor” value is 40 fmol per mg/protein. Besides, the “ratio of heart weight to body weight (hw:bw), size of heart muscle” value in data set [3] is reported as “increases the size of the heart muscle”. The “amount of bound 32P (incorporation of 32P into substrate)” value in the data set on GRK was “concentration dependent reduction in incorporation of ^32P”. In addition, the cardiac output entry in data set [4] (IV GSNO 2 nmol per kg per minute, on dobutamine 30 μg per kg per minute, over the following 24 hours) is given as “improved”. Further, in [5], the cardiac output result was “increase in cardiac output” and the shortness of breath entry is “decrease in shortness of breath”. Moreover, in data set [6], the removal from bypass result is on record as “successfully removed from bypass”. The bone pain entry in data set [7] is given as “relieves their pain”. Moreover, in data set [8], the “FEV1 (acute)” value is on record as “does not change acutely” and the blood pressure result is given as “remains stable”. The “symptoms of shortness of breath” value in [8] (with corresponding improvement in FEV1) is recorded as “resolve over the following 48 hours”.
